This is an account of results in US10759754B2, “Aminobenzoic acid derivatives for use as anti-inflammatory agents, anti-metastatic agents and/or anticancer agents” (3R VALO, S.E.C., priority 2016, dated 2020).

Entries after “also recorded” stand apart in the source; their conditions may differ.

In the test the test system is MB49-I tumors. The experiment in a line: Orthotopic UBC model, MB49-I tumors implanted in the bladder of female mice. Type of test: in vivo. The conditions noted are these: i.p. biweekly at 150 μM during two weeks. The method, then: Orthotopic UBC model. Female C57BL/6J mice (6-8 weeks old), each weighing 15-18 g, were anesthetized and a 24-gauge Teflon catheter was introduced into the bladder lumen through the urethra. To prepare the bladder for tumor implantation, a point lesion was induced in the bladder wall by electrocauterization. Then, 1×10^5 of MB49-I cells in 100 μl of PBS were instilled into the bladder. When indicated, control mice were electrocauterized and PBS was instilled into the bladder. Syringes containing the cell suspension were maintained into the catheter for 20 min to allow cell attachment to the bladder wall.^24,27

As for `CC(C)(C)OC(=O)NNC(=O)c1ccc(N2C(=O)C=CC2=O)cc1` [Compound 4, N′-[4-(2,5-dioxo-2,5-dihydro-pyrrol-1-yl)-benzoyl]-hydrazine carboxylic acid tert-butyl ester], the “development of muscle-invasive MB49-I tumors in the bladder” value was “stopped; also recorded: completely abolished”.
